Laboratory results taken from ChEMBL document CHEMBL1201862, “PubChem BioAssay data set” (2004).
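The compound was tested at five concentrations on cells cultured in 96-well plates, with a 48-hour exposure period. GI50 is the concentration that inhibits growth by half.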 Active and inactive are the calls of the source. Cut-off read from the data, not from the text of the source: active = GI50 up to about 1.1 µM and inactive = higher.

Legend:
Assay in all cases: NCI-60 cell line screen, 48 h
EKVX = tested on: EKVX
HL-60 = tested on: HL-60
IGROV-1 = tested on: IGROV-1
KM12 = tested on: KM12
MOLT-4 = tested on: MOLT-4
Malme-3M = tested on: Malme-3M
NCI-H226 = tested on: NCI-H226
OVCAR-4 = tested on: OVCAR-4
OVCAR-5 = tested on: OVCAR-5
OVCAR-8 = tested on: OVCAR-8
UACC-257 = tested on: UACC-257
UO-31 = tested on: UO-31
A498 = tested on: A498
K562 = tested on: K562
NCI-H522 = tested on: NCI-H522
SF-539 = tested on: SF-539

SMILES	GI50 (EKVX)	GI50 (HL-60)	GI50 (IGROV-1)	GI50 (KM12)	GI50 (MOLT-4)	GI50 (Malme-3M)	GI50 (NCI-H226)	GI50 (OVCAR-4)	GI50 (OVCAR-5)	GI50 (OVCAR-8)	GI50 (UACC-257)	GI50 (UO-31)	GI50 (A498)	GI50 (K562)	GI50 (NCI-H522)	GI50 (SF-539)
NC(=S)N/N=C(/CC(=O)c1ccc([N+](=O)[O-])cc1)C(=O)Nc1ncc([N+](=O)[O-])s1	> 100 µM (inactive)	45.2 µM (inactive)	> 100 µM (inactive)	> 100 µM (inactive)	30.7 µM (inactive)	> 100 µM (inactive)	> 100 µM (inactive)	> 100 µM (inactive)	> 100 µM (inactive)	> 100 µM (inactive)	> 100 µM (inactive)	> 100 µM (inactive)	–	–	–	–
C[N+]1=c2c3cccc4cccc(c(=O)n2CC1)c43	29.4 µM (inactive)	20.9 µM (inactive)	21.9 µM (inactive)	18.3 µM (inactive)	3.37 µM (inactive)	10.5 µM (inactive)	13.1 µM (inactive)	17.6 µM (inactive)	15.5 µM (inactive)	16.6 µM (inactive)	16.1 µM (inactive)	12.3 µM (inactive)	15.1 µM (inactive)	19 µM (inactive)	11.4 µM (inactive)	14.6 µM (inactive)
COc1cc2c3c(c1OC)-c1c(ccc4c1OCO4)CC3(C#N)N(C(=O)c1ccccc1)CC2 (centres undefined)	74.1 µM (inactive)	> 100 µM (inactive)	> 100 µM (inactive)	> 100 µM (inactive)	> 100 µM (inactive)	51.2 µM (inactive)	37.7 µM (inactive)	21 µM (inactive)	> 100 µM (inactive)	44.5 µM (inactive)	57.7 µM (inactive)	99.8 µM (inactive)	> 100 µM (inactive)	54.6 µM (inactive)	> 100 µM (inactive)	28.1 µM (inactive)
CC(C(=O)c1ccc(Cl)cc1)/C(=N/NC(=O)NN)C(=O)Nc1cccc(C(F)(F)F)c1 (centres undefined)	> 100 µM (inactive)	> 100 µM (inactive)	> 100 µM (inactive)	–	> 100 µM (inactive)	> 100 µM (inactive)	> 100 µM (inactive)	> 100 µM (inactive)	> 100 µM (inactive)	> 100 µM (inactive)	> 100 µM (inactive)	> 100 µM (inactive)	> 100 µM (inactive)	> 100 µM (inactive)	–	> 100 µM (inactive)
COc1cc(OC)cc(C(=O)Cc2c(C(=O)c3ccccc3)c3ccccc3n2C(=O)c2ccccc2)c1	55.2 µM (inactive)	34.5 µM (inactive)	31.3 µM (inactive)	33.7 µM (inactive)	9.4 µM (inactive)	38.5 µM (inactive)	31.1 µM (inactive)	15.3 µM (inactive)	> 100 µM (inactive)	16.9 µM (inactive)	–	24.4 µM (inactive)	13.2 µM (inactive)	16.7 µM (inactive)	6 µM (inactive)	30.2 µM (inactive)
COc1ccc(C2C(Cl)C(=O)N2NC(=O)Cc2ccccc2)cc1 (centres undefined)	> 100 µM (inactive)	> 100 µM (inactive)	> 100 µM (inactive)	> 100 µM (inactive)	> 100 µM (inactive)	> 100 µM (inactive)	> 100 µM (inactive)	> 100 µM (inactive)	> 100 µM (inactive)	> 100 µM (inactive)	> 100 µM (inactive)	> 100 µM (inactive)	–	> 100 µM (inactive)	> 100 µM (inactive)	–
CC(=O)C1C(=O)NC(=O)C1=O (centres undefined)	> 100 µM (inactive)	–	> 100 µM (inactive)	> 100 µM (inactive)	–	> 100 µM (inactive)	> 100 µM (inactive)	> 100 µM (inactive)	> 100 µM (inactive)	> 100 µM (inactive)	> 100 µM (inactive)	> 100 µM (inactive)	> 100 µM (inactive)	> 100 µM (inactive)	> 100 µM (inactive)	> 100 µM (inactive)
COc1ccc(/C=C(\Cl)c2ccc(OC)cc2)cc1	> 100 µM (inactive)	> 100 µM (inactive)	–	> 100 µM (inactive)	> 100 µM (inactive)	> 100 µM (inactive)	> 100 µM (inactive)	> 100 µM (inactive)	> 100 µM (inactive)	> 100 µM (inactive)	> 100 µM (inactive)	> 100 µM (inactive)	> 100 µM (inactive)	> 100 µM (inactive)	> 100 µM (inactive)	> 100 µM (inactive)
O=C1C2=C(c3ccccc31)C(c1cccc(Cl)c1)NC(S)=N2 (centres undefined)	> 100 µM (inactive)	> 100 µM (inactive)	> 100 µM (inactive)	45.9 µM (inactive)	91.8 µM (inactive)	> 100 µM (inactive)	44.2 µM (inactive)	76.7 µM (inactive)	> 100 µM (inactive)	96.4 µM (inactive)	> 100 µM (inactive)	46.2 µM (inactive)	> 100 µM (inactive)	> 100 µM (inactive)	> 100 µM (inactive)	> 100 µM (inactive)
O=C(/C=C/c1cccc([N+](=O)[O-])c1)c1ccc([N+](=O)[O-])cc1	> 100 µM (inactive)	> 100 µM (inactive)	> 100 µM (inactive)	> 100 µM (inactive)	> 100 µM (inactive)	> 100 µM (inactive)	> 100 µM (inactive)	> 100 µM (inactive)	> 100 µM (inactive)	> 100 µM (inactive)	> 100 µM (inactive)	> 100 µM (inactive)	> 100 µM (inactive)	> 100 µM (inactive)	> 100 µM (inactive)	> 100 µM (inactive)
N#Cc1ccc(C2OCC3CC=CCC3CO2)cc1 (centres undefined)	31.2 µM (inactive)	30.7 µM (inactive)	> 100 µM (inactive)	61.4 µM (inactive)	2.97 µM (inactive)	> 100 µM (inactive)	> 100 µM (inactive)	> 100 µM (inactive)	71.9 µM (inactive)	83.4 µM (inactive)	42.7 µM (inactive)	> 100 µM (inactive)	–	30.9 µM (inactive)	18.9 µM (inactive)	> 100 µM (inactive)
CC(C)N(C(=O)C1(C)CC1)C(C)C	> 100 µM (inactive)	> 100 µM (inactive)	> 100 µM (inactive)	> 100 µM (inactive)	> 100 µM (inactive)	> 100 µM (inactive)	> 100 µM (inactive)	> 100 µM (inactive)	> 100 µM (inactive)	> 100 µM (inactive)	> 100 µM (inactive)	> 100 µM (inactive)	> 100 µM (inactive)	> 100 µM (inactive)	> 100 µM (inactive)	> 100 µM (inactive)
C[P+]1(Cc2ccccc2)CCCC1	> 100 µM (inactive)	> 100 µM (inactive)	> 100 µM (inactive)	> 100 µM (inactive)	> 100 µM (inactive)	62.8 µM (inactive)	> 100 µM (inactive)	–	> 100 µM (inactive)	> 100 µM (inactive)	> 100 µM (inactive)	> 100 µM (inactive)	> 100 µM (inactive)	> 100 µM (inactive)	> 100 µM (inactive)	> 100 µM (inactive)
COc1ccccc1NC(=O)CC(=O)n1nc(-c2ccccc2)c(/N=N/c2ccccc2[N+](=O)[O-])c1-c1ccccc1	44.5 µM (inactive)	> 100 µM (inactive)	> 100 µM (inactive)	36.1 µM (inactive)	64.7 µM (inactive)	> 100 µM (inactive)	0.612 µM (active)	> 100 µM (inactive)	64.1 µM (inactive)	> 100 µM (inactive)	> 100 µM (inactive)	38.4 µM (inactive)	–	80.7 µM (inactive)	> 100 µM (inactive)	> 100 µM (inactive)
CCOc1ccc(/N=N/c2c(-c3ccccc3)nn(C(=O)CC(=O)Nc3cccc(C)c3)c2-c2ccccc2)cc1	38.1 µM (inactive)	> 100 µM (inactive)	> 100 µM (inactive)	41.5 µM (inactive)	> 100 µM (inactive)	> 100 µM (inactive)	96.4 µM (inactive)	> 100 µM (inactive)	74.1 µM (inactive)	> 100 µM (inactive)	> 100 µM (inactive)	17.7 µM (inactive)	–	38.8 µM (inactive)	> 100 µM (inactive)	76.2 µM (inactive)
COC(=O)CC(=O)NCC1=CCC(=O)CC1	> 100 µM (inactive)	> 100 µM (inactive)	> 100 µM (inactive)	> 100 µM (inactive)	> 100 µM (inactive)	> 100 µM (inactive)	–	> 100 µM (inactive)	–	> 100 µM (inactive)	> 100 µM (inactive)	> 100 µM (inactive)	> 100 µM (inactive)	> 100 µM (inactive)	> 100 µM (inactive)	> 100 µM (inactive)
C[P+](C)(C)C	> 100 µM (inactive)	> 100 µM (inactive)	> 100 µM (inactive)	> 100 µM (inactive)	> 100 µM (inactive)	> 100 µM (inactive)	> 100 µM (inactive)	> 100 µM (inactive)	> 100 µM (inactive)	> 100 µM (inactive)	> 100 µM (inactive)	> 100 µM (inactive)	–	> 100 µM (inactive)	–	> 100 µM (inactive)
CC1=C[C@H]2C[C@@]3(C)O[C@@H]([C@]4(C)CC[C@H]([C@@H](C)C(=O)O)OO4)CC3C(C)(C)[C@H]2CC1 (some centres undefined)	1.87 µM (inactive)	0.114 µM (active)	–	0.397 µM (active)	–	0.849 µM (active)	2.01 µM (inactive)	1.5 µM (inactive)	3.16 µM (inactive)	1.45 µM (inactive)	1.68 µM (inactive)	1.2 µM (inactive)	–	–	0.331 µM (active)	1.94 µM (inactive)
